Data published in patent US12037583B2, “Compositions and methods for immunooncology” (Novartis AG, priority 2015, dated 2024).

How the values were obtained:
TRAC = assay: Editing of TRAC by dgRNAs in HEK cells stably expressing Cas9 (NGS); type: cell-based, human; conditions: dgRNA delivered to HEK cells stably expressing Cas9, target TRAC, mean of at least 3 experiments
Description: (§1) FIG. 12: Mean (n≥3) editing of CRISPR systems with dgRNAs as indicated to TRAC in HEK cells (stably expressing Cas9) or primary human CD3+ T cells (delivery of dgRNA:Cas9 RNP by electroporation).

TRAC locus = assay: Genomic editing of the TRAC locus in primary human CD3+ T cells by RNP electroporation (NGS: % indels, % frameshift edits, indel pattern); type: cell-based; conditions: dgRNA/Cas9 RNP by electroporation, target TRAC; for mean FS edit (%): frameshift edits in primary human CD3+ T cells; for mean total % edit: primary human CD3+ T cells, mean of at least 3 experiments;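 on all read-outs here: total edit is the insertion or deletion frequency at TRAC, and the frameshift value is the share of those indels that shift the coding frame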
Description: as §1
FIG. 33C: Genomic editing of the TRAC locus resulting from human primary T cell electroporation with RNP containing the indicated gRNA targeting the TRAC locus is shown. The frequency of insertions or deletions is indicated (% indels) and the percentage of these edits that result in frameshifting of the coding sequence is shown (% frameshift edits).
Data for each experiment are the average from triplicate PCR products.

CIITA [1] = assay: NGS editing and frameshift edit of CIITA in CD3+ primary human T cells (RNP); type: cell-based; conditions: dgRNA targeting CIITA delivered as RNP to CD3+ T cells
Description: The frequency of insertions or deletions is indicated (% indels) and the percentage of these edits that result in frameshifting of the coding sequence is shown (% frameshift edits).
PBMC were isolated from human blood (Hemacare) by using centrifugation method using Ficoll. […] These cells were aliquoted and frozen. These frozen cell aliquots were then thawed and activated using CD3/CD28 beads (DynaBeads Invitrogen Cat #111.41D) at bead to cell ratio of 3:1. On day 2 or day 3 after bead activation, 200,000 cells were removed from culture for electroporation. […] Next 1 μL of 100 μM crRNA was added, mixed and incubated for 10 min at 37° C. If more than one RNP was added during the electroporation step, each RNP with a crRNA targeting a different gene was assembled separately using the above method, then combined together with the addition of Cas9 buffer in order to obtain different RNP final concentrations for different conditions. For “triple editing”, i.e. simultaneous addition of 3 RNPs targeting different genes, details of RNP quantities are provided in the figures. The assembled RNPs were then mixed with 200,000 cells in 10 ul of T Buffer (neon transfection system 10 ul Kit). Electroporation was performed by Neon electroporator using Neon® Transfection System 10 μL Kit (MPK1096) at 1600V, 10 ms, 3 pulses. […] To evaluate the editing frequency and sequence changes resulting from gene editing in the above prepared T cells, genomic DNA was isolated and subjected to sequencing. Briefly, frozen cell pellets were thawed and processed using DNeasy Blood & Tissue Kit (Qiagen, 69506) to isolate genomic DNA. Eluted DNA was used to run PCR using Titanium Taq PCR kit (Clontech Laboratories, 639211) and primers in Table 27.
PCR product was purified using QIAquick PCR Purification Kit (Qiagen, 28104). […] PCR amplicons were subjected to standard Nextera NGS library prep (Illumina) and sequenced with paired-end reads on an Illumina MiSeq sequencer.

CIITA [2] = assay: NGS editing and frameshift edit of CIITA by dgRNA in HEK293 cells expressing Cas9; type: cell-based, human; conditions: HEK293 cells stably expressing Cas9, dgRNA to CIITA; for Avg. % Edit: N = 3; for Avg. % FS: frameshift edit
Protocol: Editing of CIITA with dgRNAs targeted to the CIITA gene were assayed in HEK293 cells engineered to express Cas9, as described above in Example 1.

Substance | mean % edit (TRAC) [%] | mean FS edit (%) (TRAC locus) | mean total % edit (TRAC locus) [%] | Editing % (CIITA [1]) [%] | Frameshift Edit % (CIITA [1]) [%] | Avg. % Edit (CIITA [2]) [%] | Avg. % FS (CIITA [2]) [%]
CACACCUCUUGUCUUUGGAA (chemistry not given here; listed as Homo sapiens) [CR000954] | 22.3 | 2.6 | 2.7 | – | – | – | –
CACCAAAGCUGCCCUUACCU (chemistry not given here; listed as Homo sapiens) [CR000977] | 80.6 | 35.7 | 44.2 | – | – | – | –
CCACUUUCAGGAGGAGGAUU (chemistry not given here; listed as Homo sapiens) [CR000986] | 68.6 | 14.8 | 36.4 | – | – | – | –
CCAGGGCAUGCCAUGCUCAC (chemistry not given here; listed as Homo sapiens) [CR000928] | 54.2 | 14.6 | 18.1 | – | – | – | –
CCUGUGAGCAUGGCAUGCCC (chemistry not given here; listed as Homo sapiens) [CR000927] | 68.7 | 22.6 | 23.8 | – | – | – | –
CR002976 (guide AUAGAAGUGGUAGAGGCACA; chemistry not given here; listed as Homo sapiens) | – | – | – | 4.0 | 3.6 | 45.36 | 37.66
CR002978 (guide UCUGGUCAUAGAAGUGGUAG; chemistry not given here; listed as Homo sapiens) | – | – | – | 4.7 | 2.7 | 38.34 | 34.11
CR002980 (guide GGUCCAUCUGGUCAUAGAAG; chemistry not given here; listed as Homo sapiens) | – | – | – | 6.1 | 3.6 | 50.30 | 42.41
CR002992 (guide UGGAAGGUGAUGAAGAGACC; chemistry not given here; listed as Homo sapiens) | – | – | – | 16.0 | 11.6 | 46.54 | 31.23
CR002993: dgRNA targeting domain to CIITA (guide GGAAGGUGAUGAAGAGACCA; chemistry not given here; listed as Homo sapiens) | – | – | – | 33.8 | 27.2 | 60.16 | 48.86
CR002994 (guide AGGUGAUGAAGAGACCAGGG; chemistry not given here; listed as Homo sapiens) | – | – | – | 22.0 | 18.1 | 42.35 | 31.32
CR002995 (guide GAUAUUGGCAUAAGCCUCCC; chemistry not given here; listed as Homo sapiens) | – | – | – | 3.1 | 2.5 | 52.74 | 43.64
CUACCACCUCUGUGCCCCCC (chemistry not given here; listed as Homo sapiens) [CR001012] | 64.5 | 22.9 | 31.5 | – | – | – | –
CUGACAGGUUUUGAAAGUUU (chemistry not given here; listed as Homo sapiens) [CR000981] | 70.0 | 25.1 | 37.6 | – | – | – | –
CUGGGGAAGAAGGUGUCUUC (chemistry not given here; listed as Homo sapiens) [CR000973] | 39.7 | 12.4 | 16.2 | – | – | – | –
CUUCAAGAGCAACAGUGCUG (chemistry not given here; listed as Homo sapiens) [CR000969] | 34.0 | 20.9 | 24.8 | – | – | – | –
GAGAAUCAAAAUCGGUGAAU (chemistry not given here; listed as Homo sapiens) [CR000964] | 51.2 | 23.5 | 27.0 | – | – | – | –
GAGGCUUCUCACCCUGCAGC (chemistry not given here; listed as Homo sapiens) [CR000922] | 37.8 | 5.0 | 6.4 | – | – | – | –
GAGUUCCCUCUGUUUGGAGA (chemistry not given here; listed as Homo sapiens) [CR001004] | 47.2 | 6.4 | 6.7 | – | – | – | –
GCAAUGCAGAGGAAGGAGCG (chemistry not given here; listed as Homo sapiens) [CR000998] | 4.3 | 2.2 | 2.4 | – | – | – | –
GCAGCAGGGACCUGUGAGCA (chemistry not given here; listed as Homo sapiens) [CR000926] | 73.0 | 19.9 | 22.5 | – | – | – | –

Substance | mean % edit (TRAC) [%] | mean FS edit (%) (TRAC locus) | mean total % edit (TRAC locus) [%] | Editing % (CIITA [1]) [%] | Frameshift Edit % (CIITA [1]) [%] | Avg. % Edit (CIITA [2]) [%] | Avg. % FS (CIITA [2]) [%]
GCAUUGCCGGGGGGGCACAG (chemistry not given here; listed as Homo sapiens) [CR001014] | 52.7 | 24.3 | 27.3 | – | – | – | –
GCUGUAUGUGUGAGUUGGUG (chemistry not given here; listed as Homo sapiens) [CR000948] | 84.5 | 18.4 | 20.3 | – | – | – | –
GCUUUCACCUCCUUGGGGGU (chemistry not given here; listed as Homo sapiens) [CR001008] | 13.6 | 4.5 | 5.1 | – | – | – | –
GGAAACACACCUCUUGUCUU (chemistry not given here; listed as Homo sapiens) [CR000953] | 66.0 | 14.4 | 17.7 | – | – | – | –
GGUGUCAUAUGUGCAGCUCA (chemistry not given here; listed as Homo sapiens) [CR000938] | 55.0 | 12.5 | 13.9 | – | – | – | –
GUAGCAGCUUUCACCUCCUU (chemistry not given here; listed as Homo sapiens) [CR001011] | 64.8 | 10.8 | 13.2 | – | – | – | –
GUAGGAGAGUUCCCUCUGUU (chemistry not given here; listed as Homo sapiens) [CR001006] | 56.8 | 10.4 | 13.6 | – | – | – | –
UAAACCCGGCCACUUUCAGG (chemistry not given here; listed as Homo sapiens) [CR000990] | 63.7 | 25.3 | 36.1 | – | – | – | –
UAAAUAAUAAUCACUCUCAC (chemistry not given here; listed as Homo sapiens) [CR000940] | 55.0 | 14.4 | 22.1 | – | – | – | –
UAGCAGCUUUCACCUCCUUG (chemistry not given here; listed as Homo sapiens) [CR001010] | 48.3 | 18.6 | 21.2 | – | – | – | –
UAGGCAGACAGACUUGUCAC (chemistry not given here; listed as Homo sapiens) [CR000963] | 68.4 | 25.3 | 32.5 | – | – | – | –
UAUUCUUGUGCUCUCAGAGA (chemistry not given here; listed as Homo sapiens) [CR000952] | 57.9 | 5.6 | 5.8 | – | – | – | –
UCAAGGCCCCUCACCUCAGC (chemistry not given here; listed as Homo sapiens) [CR000995] | 23.2 | 2.5 | 1.9 | – | – | – | –
UCCUCCUCCUGAAAGUGGCC (chemistry not given here; listed as Homo sapiens) [CR000988] | 41.9 | 17.4 | 22.3 | – | – | – | –
UCUGUUGCUUAUAAGCUUCU (chemistry not given here; listed as Homo sapiens) [CR000946] | 65.9 | 9.2 | 9.8 | – | – | – | –
UGCUCACAGGUCCCUGCUGC (chemistry not given here; listed as Homo sapiens) [CR000925] | 56.9 | 12.3 | 19.1 | – | – | – | –
UGCUCAUGACGCUGCGGCUG (chemistry not given here; listed as Homo sapiens) [CR000994] | 46.9 | 10.8 | 21.5 | – | – | – | –
UGGUGUCAUAUGUGCAGCUC (chemistry not given here; listed as Homo sapiens) [CR000939] | 27.7 | 12.1 | 13.5 | – | – | – | –
UUCAAAACCUGUCAGUGAUU (chemistry not given here; listed as Homo sapiens) [CR000983] | 59.8 | 18.2 | 26.6 | – | – | – | –
UUGCCGGGGGGGCACAGAGG (chemistry not given here; listed as Homo sapiens) [CR001013] | 29.7 | 17.6 | 19.6 | – | – | – | –
UUUCAAAACCUGUCAGUGAU (chemistry not given here; listed as Homo sapiens) [CR000982] | 48.1 | 23.2 | 28.5 | – | – | – | –
